Measurements as given in US20200157195A1, “14-3-3 Antagonists for the Prevention and Treatment of Arthritis” (THE UNIVERSITY OF BRITISH COLUMBIA, priority 2007, published 2020).
The star is where a group is joined. Biotin = O=C1N[C@H]2[C@H](CS[C@H]2CCCCC(=O)*)N1

Columns and labels:
[1] = test system: MMP-1 expression in dermal fibroblasts induced by extracellular 14-3-3 protein; test: MMP-1 expression in dermal fibroblasts treated with KLCCM after R-18 pull-down of 14-3-3 proteins; format: cell-based
Excerpt: The KLCCM used in these experiments was taken from day 28 of cell transdifferentiation due to their high capacity of inducing MMP-1 expression in dermal fibroblasts (data not shown). […] As negative control, dermal fibroblasts treated with medium that was not conditioned (DMEM (49%), KSFM (49%) plus 2% FBS) were used (“Pull-down”−).

[2] = test system: association of 14-3-3 proteins with Raf-1; conditions: Wang et al. 1999; cited from earlier work

Substance | inhibition of induction of MMP-1 expression by extracellular 14-3-3 protein (in words) ([1]; FIG. 5 legend) | blocking the association of 14-3-3 proteins with Raf-1 [2] | reduction of MMP-1 expression ([1]; pre-treatment of KLCCM with biotinylated R-18 and avidin sepharose (pull-down), dermal fibroblasts, MMP-1/β-actin densitometry)
R-18: small peptide 14-3-3 antagonist (Wang et al. 1999) capable of blocking the association of 14-3-3 proteins with Raf-1 (Biotin-PHCVPRDLSWLDLEANMCLP-OH; not fully specified; cysteine pairing not given here) | inhibits induction of MMP-1 expression | capable of blocking the association of 14-3-3 proteins with Raf-1 | 
Biotin-PHCVPRDLSWLDLEANMCLP-OH (cysteine pairing not given here) [biotinylated R-18] |  |  | 68.8%
